In ChEMBL document CHEMBL1142810, “Discovery of a potent and selective 5-ht5A receptor antagonist by high-throughput chemistry” (Bioorg Med Chem Lett, 2005):
Values belong to the compound of their own block, whether it stands above or below them.

Tests used:
[1] = molecular target: T1, 5-hydroxytryptamine receptor 5A (Homo sapiens, UniProt P47898); assay: Binding affinity towards human 5-hydroxytryptamine receptor 5A expressed in CHO cells using the radioligand [3H]LSD; type: cell-based
[2] = molecular target: Sodium-dependent serotonin transporter (Homo sapiens, UniProt P31645); assay: Binding affinity towards human serotonin transporter expressed in LLCPK cells using the radioligand [3H]citalopram; type: cell-based
Chain of Sodium-dependent serotonin transporter (P31645 whole entry): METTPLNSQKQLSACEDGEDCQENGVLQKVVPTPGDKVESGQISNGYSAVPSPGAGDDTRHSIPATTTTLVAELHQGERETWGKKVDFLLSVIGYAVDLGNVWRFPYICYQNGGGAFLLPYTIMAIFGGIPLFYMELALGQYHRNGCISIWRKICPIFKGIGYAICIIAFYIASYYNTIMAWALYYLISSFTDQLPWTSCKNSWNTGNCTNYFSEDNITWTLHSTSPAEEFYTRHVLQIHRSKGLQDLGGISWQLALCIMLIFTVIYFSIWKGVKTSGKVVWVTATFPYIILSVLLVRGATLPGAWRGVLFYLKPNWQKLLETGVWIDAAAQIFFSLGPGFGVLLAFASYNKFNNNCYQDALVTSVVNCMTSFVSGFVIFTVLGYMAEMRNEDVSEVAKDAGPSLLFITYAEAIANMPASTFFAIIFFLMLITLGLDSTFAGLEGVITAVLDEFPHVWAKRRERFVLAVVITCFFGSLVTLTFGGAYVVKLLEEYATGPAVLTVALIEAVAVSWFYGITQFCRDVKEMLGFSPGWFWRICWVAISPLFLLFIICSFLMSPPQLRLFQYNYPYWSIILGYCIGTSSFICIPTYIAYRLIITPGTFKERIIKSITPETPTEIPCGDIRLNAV

[3] = Peak blood concentration in guinea pig at a dose of 3 mg/kg upon subcutaneous administration; type: ADME, organism-based, Cavia porcellus; parameters: dose 3 mg/kg, route subcutaneous; conditions: sc
[4] = Peak blood concentration in guinea pig at a dose of 3 mg/kg upon oral administration; type: ADME, organism-based, Cavia porcellus; parameters: dose 3 mg/kg, route oral
[5] = Bioavailability in guinea pig at a dose of 3 mg/kg upon oral administration; type: ADME, organism-based, Cavia porcellus; conditions: in vivo
[6] = Volume of distribution in guinea pig at a dose of 1 mg/kg upon intravenous administration; type: ADME, organism-based, Cavia porcellus; parameters: dose 1 mg/kg, route intravenous; conditions: in vivo, read-out: Vdss
[7] = Half life in guinea pig at a dose of 1 mg/kg upon intravenous administration; type: ADME, organism-based, Cavia porcellus; parameters: dose 1 mg/kg, route intravenous; conditions: in vivo
[8] = Bioavailability in guinea pig at a dose of 3 mg/kg upon subcutaneous administration; type: ADME, organism-based, Cavia porcellus; conditions: in vivo, sc
[9] = Half life in guinea pig at a dose of 3 mg/kg upon oral administration; type: ADME, organism-based, Cavia porcellus; parameters: dose 3 mg/kg, route oral; conditions: in vivo
[10] = Blood clearance in guinea pig at a dose of 1 mg/kg upon intravenous administration; type: ADME, organism-based, Cavia porcellus; parameters: dose 1 mg/kg, route intravenous
[11] = Half life in guinea pig at a dose of 3 mg/kg upon subcutaneous administration; type: ADME, organism-based, Cavia porcellus; parameters: dose 3 mg/kg, route subcutaneous; conditions: in vivo, sc
D(2) dopamine receptor = D(2) dopamine receptor (Homo sapiens, UniProt P14416); assay: Binding affinity towards human dopamine receptor D2 expressed in CHO cells using the radioligand [125I]iodosulpiride; type: cell-based
Chain of D(2) dopamine receptor (P14416 whole entry): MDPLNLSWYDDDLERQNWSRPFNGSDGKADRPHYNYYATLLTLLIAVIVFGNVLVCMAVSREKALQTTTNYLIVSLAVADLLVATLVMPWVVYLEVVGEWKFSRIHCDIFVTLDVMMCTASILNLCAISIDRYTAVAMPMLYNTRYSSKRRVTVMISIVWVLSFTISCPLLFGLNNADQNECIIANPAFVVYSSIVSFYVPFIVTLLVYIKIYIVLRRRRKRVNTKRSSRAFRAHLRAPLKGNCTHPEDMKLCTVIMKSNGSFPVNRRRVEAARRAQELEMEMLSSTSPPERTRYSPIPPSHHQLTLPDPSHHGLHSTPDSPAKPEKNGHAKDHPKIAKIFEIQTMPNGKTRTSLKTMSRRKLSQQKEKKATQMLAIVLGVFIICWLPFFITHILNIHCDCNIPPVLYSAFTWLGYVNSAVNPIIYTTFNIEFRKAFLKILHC

[12] = molecular target: 5-hydroxytryptamine receptor 6 (Homo sapiens, UniProt P50406); assay: Binding affinity towards human 5-hydroxytryptamine receptor 6 expressed in HeLa cells using the radioligand [3H]LSD; type: cell-based
Chain of 5-hydroxytryptamine receptor 6 (P50406 whole entry): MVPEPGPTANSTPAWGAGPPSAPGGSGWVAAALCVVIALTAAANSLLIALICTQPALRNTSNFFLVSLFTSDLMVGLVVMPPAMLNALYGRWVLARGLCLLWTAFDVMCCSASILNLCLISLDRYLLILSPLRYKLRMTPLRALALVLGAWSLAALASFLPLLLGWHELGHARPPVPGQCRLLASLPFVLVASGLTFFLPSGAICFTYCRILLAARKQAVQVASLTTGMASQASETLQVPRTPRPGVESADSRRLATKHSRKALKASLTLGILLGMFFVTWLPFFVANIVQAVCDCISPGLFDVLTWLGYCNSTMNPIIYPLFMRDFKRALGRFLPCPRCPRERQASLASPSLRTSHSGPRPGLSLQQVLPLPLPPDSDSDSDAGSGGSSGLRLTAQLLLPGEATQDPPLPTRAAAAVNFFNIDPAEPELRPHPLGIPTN

[13] = molecular target: T2, 5-hydroxytryptamine receptor 1F (Homo sapiens, UniProt P30939); assay: Binding affinity towards human 5-hydroxytryptamine receptor 1F expressed in HEK 293 cells using the radioligand [3H]5-HT; type: cell-based, HEK293
T2 sequence (P30939 whole entry): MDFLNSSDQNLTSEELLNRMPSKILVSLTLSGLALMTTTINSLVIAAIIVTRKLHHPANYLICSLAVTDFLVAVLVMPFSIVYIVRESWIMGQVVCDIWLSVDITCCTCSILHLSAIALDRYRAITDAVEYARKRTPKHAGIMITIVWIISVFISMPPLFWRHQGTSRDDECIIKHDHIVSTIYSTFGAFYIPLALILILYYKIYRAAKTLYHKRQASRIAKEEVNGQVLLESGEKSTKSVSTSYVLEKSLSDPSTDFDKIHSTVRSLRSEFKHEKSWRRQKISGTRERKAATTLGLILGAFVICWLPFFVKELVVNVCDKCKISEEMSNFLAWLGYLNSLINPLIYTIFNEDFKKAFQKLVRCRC

D(4) dopamine receptor = molecular target: T3, D(4) dopamine receptor (Homo sapiens, UniProt P21917); assay: Binding affinity towards human dopamine receptor D4 expressed in CHO cells using the radioligand [125I]iodosulpiride; type: cell-based
T3 sequence (P21917 whole entry): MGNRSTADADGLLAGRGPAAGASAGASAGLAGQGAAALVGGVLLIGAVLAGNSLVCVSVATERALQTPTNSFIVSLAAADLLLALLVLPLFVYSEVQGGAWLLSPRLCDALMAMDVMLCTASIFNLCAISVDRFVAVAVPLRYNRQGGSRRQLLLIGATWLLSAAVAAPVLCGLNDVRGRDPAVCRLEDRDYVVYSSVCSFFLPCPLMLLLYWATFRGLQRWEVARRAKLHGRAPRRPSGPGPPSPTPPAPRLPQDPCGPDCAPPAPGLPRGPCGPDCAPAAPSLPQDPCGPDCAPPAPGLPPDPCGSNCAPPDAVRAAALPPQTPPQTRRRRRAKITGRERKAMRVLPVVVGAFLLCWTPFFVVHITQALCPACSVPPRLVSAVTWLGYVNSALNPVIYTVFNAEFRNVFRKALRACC

[14] = molecular target: 5-hydroxytryptamine receptor 1E (Homo sapiens, UniProt P28566); assay: Binding affinity towards human 5-hydroxytryptamine receptor 1E expressed in HEK 293 cells using the radioligand [3H]5-HT; type: cell-based, HEK293
Chain of 5-hydroxytryptamine receptor 1E (P28566 whole entry): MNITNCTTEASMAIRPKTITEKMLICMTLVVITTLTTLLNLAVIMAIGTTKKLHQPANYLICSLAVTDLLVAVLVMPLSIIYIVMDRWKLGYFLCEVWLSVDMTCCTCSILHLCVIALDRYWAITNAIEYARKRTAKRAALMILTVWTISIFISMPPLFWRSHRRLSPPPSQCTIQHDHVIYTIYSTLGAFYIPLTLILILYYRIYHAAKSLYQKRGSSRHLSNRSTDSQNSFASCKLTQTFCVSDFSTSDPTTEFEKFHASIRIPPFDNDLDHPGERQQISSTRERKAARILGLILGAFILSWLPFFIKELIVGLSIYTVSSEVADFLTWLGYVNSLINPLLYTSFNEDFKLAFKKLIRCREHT

[15] = molecular target: 5-hydroxytryptamine receptor 7 (Homo sapiens, UniProt P34969); assay: Binding affinity towards human 5-hydroxytryptamine receptor 7 expressed in HEK 293 cells using the radioligand [3H]5-CT; type: cell-based, HEK293
Chain of 5-hydroxytryptamine receptor 7 (P34969 whole entry): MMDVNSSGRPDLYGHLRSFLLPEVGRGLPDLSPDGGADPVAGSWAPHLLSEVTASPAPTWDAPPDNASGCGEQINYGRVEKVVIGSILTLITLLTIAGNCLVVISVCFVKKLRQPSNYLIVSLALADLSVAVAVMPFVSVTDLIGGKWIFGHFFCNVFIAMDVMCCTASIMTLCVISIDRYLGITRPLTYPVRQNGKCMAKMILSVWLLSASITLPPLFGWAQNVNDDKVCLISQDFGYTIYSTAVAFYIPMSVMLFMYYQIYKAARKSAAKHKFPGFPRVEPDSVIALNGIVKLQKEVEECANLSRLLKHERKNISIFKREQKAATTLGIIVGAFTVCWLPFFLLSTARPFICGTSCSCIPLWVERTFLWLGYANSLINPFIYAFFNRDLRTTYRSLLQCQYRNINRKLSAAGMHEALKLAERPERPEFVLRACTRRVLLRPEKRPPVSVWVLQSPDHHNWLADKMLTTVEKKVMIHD

[16] = molecular target: 5-hydroxytryptamine receptor 2A (Homo sapiens, UniProt P28223); assay: Binding affinity towards human 5-hydroxytryptamine receptor 2A expressed in HEK 293 cells using the radioligand [3H]ketanserin; type: cell-based, HEK293
Chain of 5-hydroxytryptamine receptor 2A (P28223 whole entry): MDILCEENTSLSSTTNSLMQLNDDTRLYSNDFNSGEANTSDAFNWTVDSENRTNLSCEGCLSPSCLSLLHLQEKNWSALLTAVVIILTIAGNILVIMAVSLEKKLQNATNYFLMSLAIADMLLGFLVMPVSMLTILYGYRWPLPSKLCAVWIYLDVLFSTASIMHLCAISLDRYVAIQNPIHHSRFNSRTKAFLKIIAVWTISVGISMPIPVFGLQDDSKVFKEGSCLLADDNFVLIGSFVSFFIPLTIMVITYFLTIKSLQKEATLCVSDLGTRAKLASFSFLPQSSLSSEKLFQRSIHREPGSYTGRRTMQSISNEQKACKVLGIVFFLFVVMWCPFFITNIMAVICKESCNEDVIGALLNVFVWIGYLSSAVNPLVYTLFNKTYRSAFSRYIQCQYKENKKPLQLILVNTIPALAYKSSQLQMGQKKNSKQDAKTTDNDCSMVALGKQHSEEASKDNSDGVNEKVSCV

[17] = molecular target: 5-hydroxytryptamine receptor 1D (Homo sapiens, UniProt P28221); assay: Binding affinity towards human 5-hydroxytryptamine receptor 1D expressed in CHO cells using the radioligand [3H]5-HT; type: cell-based
Chain of 5-hydroxytryptamine receptor 1D (P28221 whole entry): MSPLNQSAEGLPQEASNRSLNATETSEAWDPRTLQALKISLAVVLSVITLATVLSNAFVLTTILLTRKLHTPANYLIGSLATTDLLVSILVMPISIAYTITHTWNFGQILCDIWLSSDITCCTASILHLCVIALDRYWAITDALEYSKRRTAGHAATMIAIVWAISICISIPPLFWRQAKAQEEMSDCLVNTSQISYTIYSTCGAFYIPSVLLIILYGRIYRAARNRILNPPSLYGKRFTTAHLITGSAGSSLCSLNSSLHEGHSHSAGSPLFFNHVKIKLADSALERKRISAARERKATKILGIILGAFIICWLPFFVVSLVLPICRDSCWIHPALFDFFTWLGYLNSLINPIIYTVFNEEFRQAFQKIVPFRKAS

[18] = molecular target: 5-hydroxytryptamine receptor 2B (Homo sapiens, UniProt P41595); assay: Binding affinity towards human 5-hydroxytryptamine receptor 2B expressed in HEK 293 cells using the radioligand [3H]5-HT; type: cell-based, HEK293
Chain of 5-hydroxytryptamine receptor 2B (P41595 whole entry): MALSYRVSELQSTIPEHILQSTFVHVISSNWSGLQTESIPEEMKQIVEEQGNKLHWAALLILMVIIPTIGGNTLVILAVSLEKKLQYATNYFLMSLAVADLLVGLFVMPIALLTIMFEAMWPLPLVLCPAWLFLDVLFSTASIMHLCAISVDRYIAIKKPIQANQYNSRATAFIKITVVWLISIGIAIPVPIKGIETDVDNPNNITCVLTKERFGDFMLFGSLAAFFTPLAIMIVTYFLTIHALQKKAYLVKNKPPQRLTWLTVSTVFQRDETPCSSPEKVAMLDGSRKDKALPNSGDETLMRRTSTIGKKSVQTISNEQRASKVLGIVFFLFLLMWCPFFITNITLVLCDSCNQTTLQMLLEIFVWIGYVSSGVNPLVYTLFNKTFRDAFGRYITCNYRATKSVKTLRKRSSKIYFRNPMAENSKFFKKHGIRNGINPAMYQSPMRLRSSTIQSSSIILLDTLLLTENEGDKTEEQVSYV

[19] = molecular target: 5-hydroxytryptamine receptor 1B (Homo sapiens, UniProt P28222); assay: Binding affinity towards human 5-hydroxytryptamine receptor 1B expressed in CHO cells using the radioligand [3H]5-HT; type: cell-based
Chain of 5-hydroxytryptamine receptor 1B (P28222 whole entry): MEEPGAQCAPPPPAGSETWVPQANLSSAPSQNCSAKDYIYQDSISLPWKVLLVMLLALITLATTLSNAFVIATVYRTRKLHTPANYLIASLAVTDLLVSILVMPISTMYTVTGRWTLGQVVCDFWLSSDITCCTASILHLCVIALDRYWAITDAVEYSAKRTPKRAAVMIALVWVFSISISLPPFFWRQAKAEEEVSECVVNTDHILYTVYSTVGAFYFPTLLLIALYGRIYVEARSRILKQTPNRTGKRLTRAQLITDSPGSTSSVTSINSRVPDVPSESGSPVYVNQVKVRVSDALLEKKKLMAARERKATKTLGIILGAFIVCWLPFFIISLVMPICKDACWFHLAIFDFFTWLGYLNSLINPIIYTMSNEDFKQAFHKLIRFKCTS

[20] = molecular target: T4, Alpha-1B adrenergic receptor (Homo sapiens, UniProt P35368); assay: Binding affinity towards human alpha-1B-adrenergic receptor expressed in CHO cells using the radioligand [3H]prazosin; type: cell-based
T4 sequence (P35368 whole entry): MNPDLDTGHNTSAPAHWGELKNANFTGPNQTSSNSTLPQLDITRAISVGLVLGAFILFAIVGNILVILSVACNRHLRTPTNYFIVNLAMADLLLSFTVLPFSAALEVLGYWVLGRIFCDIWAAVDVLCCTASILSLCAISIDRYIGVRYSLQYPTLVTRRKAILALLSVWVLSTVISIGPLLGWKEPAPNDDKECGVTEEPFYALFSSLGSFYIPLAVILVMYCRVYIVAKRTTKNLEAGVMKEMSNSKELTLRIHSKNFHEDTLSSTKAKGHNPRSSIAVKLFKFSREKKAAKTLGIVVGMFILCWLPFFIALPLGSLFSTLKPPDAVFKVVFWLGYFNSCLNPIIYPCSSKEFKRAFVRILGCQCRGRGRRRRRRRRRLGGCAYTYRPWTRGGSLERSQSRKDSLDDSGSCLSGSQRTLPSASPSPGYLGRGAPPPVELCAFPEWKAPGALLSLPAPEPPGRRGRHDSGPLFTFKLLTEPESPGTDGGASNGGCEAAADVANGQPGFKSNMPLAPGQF

[21] = molecular target: T5, 5-hydroxytryptamine receptor 2C (Homo sapiens, UniProt P28335); assay: Binding affinity towards human 5-hydroxytryptamine receptor 2C expressed in HEK 293 cells using the radioligand [3H]mesulergine; type: cell-based, HEK293
T5 sequence (P28335 whole entry): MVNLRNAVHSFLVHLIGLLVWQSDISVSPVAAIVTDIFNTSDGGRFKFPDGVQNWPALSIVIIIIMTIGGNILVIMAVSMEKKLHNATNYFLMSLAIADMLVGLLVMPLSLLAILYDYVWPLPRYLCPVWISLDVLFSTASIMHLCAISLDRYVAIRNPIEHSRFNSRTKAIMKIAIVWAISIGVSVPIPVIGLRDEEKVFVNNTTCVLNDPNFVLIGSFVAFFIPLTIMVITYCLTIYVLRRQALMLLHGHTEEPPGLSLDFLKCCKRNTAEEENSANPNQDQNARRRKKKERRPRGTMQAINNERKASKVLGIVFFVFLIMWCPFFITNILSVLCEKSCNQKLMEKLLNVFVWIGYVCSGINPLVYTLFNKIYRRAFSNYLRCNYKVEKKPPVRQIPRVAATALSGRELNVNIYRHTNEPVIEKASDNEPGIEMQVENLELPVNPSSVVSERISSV

[22] = molecular target: T6, 5-hydroxytryptamine receptor 1A (Homo sapiens, UniProt P08908); assay: Binding affinity towards human 5-hydroxytryptamine receptor 1A expressed in HEK 293 cells using the radioligand [3H]8-OH-DPAT; type: cell-based, HEK293
T6 sequence (P08908 whole entry): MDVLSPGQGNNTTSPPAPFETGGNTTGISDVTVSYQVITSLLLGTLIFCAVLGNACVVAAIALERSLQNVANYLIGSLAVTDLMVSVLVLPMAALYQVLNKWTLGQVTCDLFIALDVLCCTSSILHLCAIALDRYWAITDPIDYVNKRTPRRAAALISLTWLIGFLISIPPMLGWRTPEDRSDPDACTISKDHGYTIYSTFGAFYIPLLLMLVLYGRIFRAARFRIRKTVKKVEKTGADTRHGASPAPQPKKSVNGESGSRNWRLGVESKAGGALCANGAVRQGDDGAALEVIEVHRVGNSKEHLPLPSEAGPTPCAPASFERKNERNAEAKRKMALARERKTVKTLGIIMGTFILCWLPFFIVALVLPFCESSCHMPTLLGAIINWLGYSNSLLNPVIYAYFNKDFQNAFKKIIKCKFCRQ

D(3) dopamine receptor = D(3) dopamine receptor (Homo sapiens, UniProt P35462); assay: Binding affinity towards human dopamine receptor D3 expressed in CHO cells using the radioligand [125I]iodosulpiride; type: cell-based
Chain of D(3) dopamine receptor (P35462 whole entry): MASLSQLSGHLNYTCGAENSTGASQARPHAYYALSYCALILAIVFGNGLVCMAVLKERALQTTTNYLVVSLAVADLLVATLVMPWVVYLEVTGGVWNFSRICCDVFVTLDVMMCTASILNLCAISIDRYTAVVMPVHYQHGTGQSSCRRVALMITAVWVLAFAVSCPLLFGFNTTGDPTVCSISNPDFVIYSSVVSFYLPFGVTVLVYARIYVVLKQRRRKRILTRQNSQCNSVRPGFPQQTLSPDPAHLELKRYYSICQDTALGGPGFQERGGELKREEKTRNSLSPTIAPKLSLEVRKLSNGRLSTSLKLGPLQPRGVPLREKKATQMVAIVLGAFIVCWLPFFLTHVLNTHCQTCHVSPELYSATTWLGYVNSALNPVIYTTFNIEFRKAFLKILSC

[23] = molecular target: T1, 5-hydroxytryptamine receptor 5A; assay: 5-CT-induced stimulation of [35S]GTP-gamma-S, binding to 5-Hydroxytryptamine receptor 5A expressed in HEK 293 cells with compound at 1 uM; type: functional, cell-based; conditions: HEK293

T1 sequence (P47898 whole entry): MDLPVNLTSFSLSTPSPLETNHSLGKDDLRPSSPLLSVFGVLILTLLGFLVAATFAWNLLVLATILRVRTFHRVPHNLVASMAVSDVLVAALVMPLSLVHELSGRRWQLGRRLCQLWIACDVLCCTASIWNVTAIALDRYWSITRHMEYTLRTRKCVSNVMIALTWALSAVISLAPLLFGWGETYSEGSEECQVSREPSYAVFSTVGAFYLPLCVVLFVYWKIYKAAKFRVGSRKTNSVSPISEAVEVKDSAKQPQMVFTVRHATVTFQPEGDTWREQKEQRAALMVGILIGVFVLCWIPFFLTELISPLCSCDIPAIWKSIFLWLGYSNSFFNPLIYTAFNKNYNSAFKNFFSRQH

SMILES: c1ccc(CCNCc2ccc(-c3cccc(CNC4CCN(Cc5ccccc5)CC4)c3)cc2)cc1
Ki [1]: 200 nM

SMILES: CN(C)CCN(Cc1ccc(-c2ccc(CNCCc3ccccc3)cc2)cc1)C(=O)Nc1ccccc1
Ki [1]: 398 nM

SMILES: CN(C)CCN(Cc1ccc(-c2ccc(CNCCc3ccccc3)cn2)cc1)C(=O)/C=C/c1ccccc1
Ki [1]: 5.01 nM

SMILES: COCCNCc1ccc(-c2ccc(CN(Cc3cccnc3)C(=O)/C=C/c3ccccc3)cc2)cc1
Ki [1]: 6310 nM

SMILES: CN(C)CCN(Cc1ccc(-c2ccc(CNCCc3ccccc3)cc2)cc1)C(=O)C1CC1c1ccccc1 (stereo not given)
Ki [1]: 79.4 nM

SMILES: CN(C)CCN(Cc1ccc(-c2ccc(CNCCc3ccccc3)cc2)cc1)S(=O)(=O)/C=C/c1ccccc1
Ki [1]: 251 nM

SMILES: O=C(/C=C/c1ccccc1)N(Cc1ccc(-c2ccc(CNCCc3ccccc3)cc2)cc1)Cc1cccnc1
Ki (D(2) dopamine receptor): 1260 nM | Ki [12]: > 2000 nM | Ki [13]: > 1000 nM | Ki (D(4) dopamine receptor): 1580 nM | Ki [14]: > 10000 nM | Ki [15]: 1260 nM | Ki [16]: 794 nM | Ki [17]: 1260 nM | Ki [18]: 2000 nM | Ki [1]: 50.1 nM | Ki [19]: 631 nM | Ki [20]: 316 nM | Ki [21]: 1000 nM | Ki [22]: 1000 nM | Ki (D(3) dopamine receptor): 1580 nM

Continued, values first:

Ki [2]: 25.1 nM | Cmax [3]: 388 ng/mL | Cmax [4]: 20 ng/mL | bioavailability [5]: 4% | Vd [6]: 6.1 L/kg | half-life [7]: 3.5 h | bioavailability [8]: 63% | half-life [9]: 3.9 h | clearance [10]: 22 mL/min/kg | half-life [11]: 2.2 h
SMILES: CN(C)CCN(Cc1ccc(-c2ccc(CNCCc3ccccc3)cc2)cc1)C(=O)CCC1CCCC1.Cl.Cl

Ki [1]: 31.6 nM
SMILES: CN(C)CCN(Cc1ccc(-c2ccc(CNCCc3ccccn3)cc2)cc1)C(=O)CCC1CCCC1

Ki [1]: 631 nM
SMILES: CN(C)CCN(Cc1ccc(-c2ccc(CNCCc3ccccc3)cc2)cc1)C(=O)c1ccccc1

Ki [1]: 3160 nM
SMILES: CN(C)CCN(Cc1ccc(-c2ccc(CN)cc2)cc1)C(=O)CCC1CCCC1

pKb [23]: 8
SMILES: CN(C)CCN(Cc1ccc(-c2ccc(CNCCc3ccccc3)cc2)cc1)C(=O)CCC1CCCC1
